≈ marks a conversion by molar mass, not a printed value. Read-outs that look alike come from different tables or passages of the source.

Data set [1] is described as follows: Solubility of Compound 1 in 50% 0.1M salt solution (pH7)/50% absolute alcohol. In kind it is physicochemical. The text has this:
Solubility of Compound 1 in 50% 0.1M salt solution (pH7)/50%

Data set [2] can be described thus: Solubility of Compound 1 salts in water, ethanol and PEG 400. In kind it is physicochemical.
The conditions of data set [3]: rat, in vivo, po.
Data set [4] can be described thus: In-situ solubilisation of sodium salt of Compound 1 in PEG 200 by trituration with sodium acetate. In kind it is physicochemical. To be noted: organic solvent or mixture; PEG 200 (30 mL), sodium acetate (2.5 g), Compound 1 (7.4 g); read-out: concentration solubilised in-situ. As for the experimental part:
(§1) In the presence of excess acetate the salts formed in situ are freely soluble even in an aqueous alcoholic medium with a water content of 50%. With lower water contents or in the absence of water the solubility can be improved further. For example when PEG 200 (30 mL) sodium acetate (2.5 g) and Compound 1 (7.4 g) were triturated in a mortar and pestle the sodium salt of Compound 1 formed in-situ was solubilised to a concentration greater than 200 g/l.

Data set [5] is described as follows: In-situ solubilisation: solubility of Compound 1 in 50% acetate solution (0.1M) / 50% ethanol. In kind it is physicochemical. The procedure: Although the salts of Compound 1 are freely soluble in solvents such as ethanol further improvements have been observed when the salts are prepared in situ.
Solubility of Compound 1 in 50% Acetate Solution (0.1M) and 50%
as §1

Data set [6] in a line: Solubility of Compound 1 in 50% solvent systems/50% sodium phosphate (pH7) at different molarities. Type of data set: physicochemical. The procedure: The scope of in-situ solubilisation in terms of solvent type and buffer concentration can be seen in Table 4. In these experiments the sodium salt of Compound 1 was prepared through the presence of varying concentrations of sodium phosphate buffer solution with 50% of the test solvent.
Solubility of Compound 1 in 50% solvent systems/50% sodium
phosphate (pH7) at different molarities
No value was obtained for those N/T samples because the solvents were immiscible with the buffer solution at those concentrations.

Take `O=C(Nc1cccc2c(=O)cc(-c3nnn[nH]3)oc12)c1ccc(OCCCCc2ccccc2)cc1` [Tris]: the solubility in data set [1] (50% salt solution/50% ethanol, pH 7, organic solvent or mixture, read-out: Solubility) came out at 1600 µg/mL.

One may read the bioavailability as the share of a dose that reaches the circulation, judged against a reference dose that is usually intravenous. Turning to `O=C(Nc1cccc2c(=O)cc(-c3nnn[nH]3)oc12)c1ccc(OCCCCc2ccccc2)cc1` [Ammonium], the “Solubility in PEG 400” value in data set [2] (PEG 400) is greater than 10000 µg/mL. Moreover, in data set [2], the Solubility in ethanol came to 9330 µg/mL. Also, the Solubility in water in data set [2] (water) came to 280 µg/mL. In data set [3], the “absorption, in words” value is “reasonably well absorbed” and the “increase of absolute bioavailability relative to the parent acid” value is “approximately tenfold”. In addition, in data set [3] (20 mg/kg), the “AUC)-t or infinity” value is 81490.5 ± 23670.3 µg·min/mL, the BA stood at 7.15 ± 2.08%, the CMAX is 548.5 ± 165.7 ng/mL and the TMAX is given as 53.1 ± 29.8 min. In addition, in data set [3] (80 mg/kg), the “AUC)-t or infinity” value is 66722.9 ± 16472.6, the BA was 1.46 ± 0.36%, the CMAX was determined as 264.5 ± 64.06 ng/mL and the TMAX is given as 150.5 ± 34.1 min. In “in vivo” (rat, in vivo, po, 20 mg/kg, absolute bioavailability), this molecule displayed a bioavailability of roughly 7%.

As for `O=C(Nc1cccc2c(=O)cc(-c3nnn[nH]3)oc12)c1ccc(OCCCCc2ccccc2)cc1` [Calcium], the “Solubility in PEG 400” value in data set [2] (PEG 400) came out at 8420 µg/mL. The Solubility in ethanol in data set [2] amounted to 360 µg/mL.

Turning to `O=C(Nc1cccc2c(=O)cc(-c3nnn[nH]3)oc12)c1ccc(OCCCCc2ccccc2)cc1` [Sodium], the Solubility in ethanol in data set [2] is greater than 10000 µg/mL. The solubility in data set [2] (peg 400, organic solvent or mixture, PEG 400, read-out: Solubility in PEG 400) is greater than 10000 µg/mL; in data set [4] it was greater than 200000 µg/mL. Also, the Solubility in water in data set [2] (water) is 40 µg/mL.

In the case of `O=C(Nc1cccc2c(=O)cc(-c3nnn[nH]3)oc12)c1ccc(OCCCCc2ccccc2)cc1` [Meglumine], the “Solubility in PEG 400” value in data set [2] (PEG 400) is 9200 µg/mL. Moreover, the Solubility in ethanol in data set [2] was found to be 3060 µg/mL. In data set [2] (water), the Solubility in water turned out to be 340 µg/mL. In data set [3], the “absorption, in words” value is reported as “evidence of enhanced absorption” and the “increase of absolute bioavailability relative to the parent acid” value is “approximately fourfold”. Also, in data set [3] (20 mg/kg), the “AUC)-t or infinity” value is on record as 35290.4 ± 11719.1, the BA amounted to 3.09 ± 1.03% and the CMAX was 207.7 ± 112.2 ng/mL. Besides, in data set [3] (80 mg/kg), the “AUC)-t or infinity” value worked out at 59012.7 ± 17096.3 µg·min/mL, the BA came to 1.29 ± 0.37%, the CMAX is 263.0 ± 139.5 ng/mL and the TMAX was determined as 97.5 ± 66.2 min. This molecule also gave a TMAX in the data set “in vivo” (rat, in vivo, po, 20 mg/kg, TMAX) of 53.1 min.

With `O=C(Nc1cccc2c(=O)cc(-c3nnn[nH]3)oc12)c1ccc(OCCCCc2ccccc2)cc1` [Ethylenediamine], in data set [1], the solubility is 1700 µg/mL.

Broadly, the half-life is the time needed for the level to fall by half in the phase considered. Read a low half-life as rapid decline. By AUC is commonly meant the area under the concentration-time curve, a measure of exposure. Low values mean less exposure, high ones more exposure. `O=C(Nc1cccc2c(=O)cc(-c3nnn[nH]3)oc12)c1ccc(OCCCCc2ccccc2)cc1` [Compound 1, N-[4-Oxo-2-(1H-tetrazol-5-yl)-4H-1-benzopyran-8-yl]-4-(4-phenylbutoxy)benzamide]: the solubility in data set [2] (water, aqueous, free acid, read-out: aqueous solubility of Compound 1 free acid) is less than 10 µg/mL; in data set [5] (0.1m ammonium acetate/ethanol 50:50, organic solvent or mixture, ammonium acetate 0.1M 50% / ethanol 50%), 11500 µg/mL (≈ 23.9 mM); in data set [5] (0.1m calcium acetate/ethanol 50:50, organic solvent or mixture, calcium acetate 0.1M 50% / ethanol 50%), 400 µg/mL (≈ 0.831 mM); in data set [5] (0.1m potassium acetate/ethanol 50:50, organic solvent or mixture, potassium acetate 0.1M 50% / ethanol 50%), 12200 µg/mL (≈ 25.3 mM); in data set [5] (0.1m sodium acetate/ethanol 50:50, organic solvent or mixture, sodium acetate 0.1M 50% / ethanol 50%), 11000 µg/mL (≈ 22.8 mM); in data set [6] (50% ethanol/0.1m sodium phosphate, pH 7, organic solvent or mixture, 50% ethanol / 50% sodium phosphate pH7, 0.1M), 16200 µg/mL (≈ 33.6 mM). Also, the solubility stood at 200 µg/mL (≈ 0.415 mM) in data set [6] (50% glycerol/0.1m sodium phosphate, pH 7, organic solvent or mixture, 50% glycerol / 50% sodium phosphate pH7, 0.1M); 50 µg/mL (≈ 0.104 mM) in data set [6] (50% glycerol/0.25m sodium phosphate, pH 7, organic solvent or mixture, 50% glycerol / 50% sodium phosphate pH7, 0.25M); 40 µg/mL (≈ 0.0831 mM) in data set [6] (50% glycerol/0.5m sodium phosphate, pH 7, organic solvent or mixture, 50% glycerol / 50% sodium phosphate pH7, 0.5M); 19500 µg/mL (≈ 40.5 mM) in data set [6] (50% glycofurol/0.1m sodium phosphate, pH 7, 50% glycofurol / 50% sodium phosphate pH7, 0.1M); 2200 µg/mL (≈ 4.57 mM) in data set [6] (50% methanol/0.1m sodium phosphate, pH 7, organic solvent or mixture, 50% methanol / 50% sodium phosphate pH7, 0.1M); 1100 µg/mL (≈ 2.28 mM) in data set [6] (50% methanol/0.25m sodium phosphate, pH 7, organic solvent or mixture, 50% methanol / 50% sodium phosphate pH7, 0.25M). Further, the solubility turned out to be 900 µg/mL (≈ 1.87 mM) in data set [6] (50% methanol/0.5m sodium phosphate, pH 7, organic solvent or mixture, 50% methanol / 50% sodium phosphate pH7, 0.5M); 18000 µg/mL (≈ 37.4 mM) in data set [6] (50% n-propanol/0.1m sodium phosphate, pH 7, organic solvent or mixture, 50% n-propanol / 50% sodium phosphate pH7, 0.1M); 43100 µg/mL (≈ 89.5 mM) in data set [6] (50% n-propanol/0.25m sodium phosphate, pH 7, organic solvent or mixture, 50% n-propanol / 50% sodium phosphate pH7, 0.25M); 56300 µg/mL (≈ 117 mM) in data set [6] (50% n-propanol/0.5m sodium phosphate, pH 7, organic solvent or mixture, 50% n-propanol / 50% sodium phosphate pH7, 0.5M); 20500 µg/mL (≈ 42.6 mM) in data set [6] (50% peg 400/0.1m sodium phosphate, pH 7, organic solvent or mixture, 50% PEG 400 / 50% sodium phosphate pH7, 0.1M); 23700 µg/mL (≈ 49.2 mM) in data set [6] (50% peg 400/0.25m sodium phosphate, pH 7, organic solvent or mixture, 50% PEG 400 / 50% sodium phosphate pH7, 0.25M). Also, the solubility in data set [6] (50% peg 400/0.5m sodium phosphate, pH 7, organic solvent or mixture, 50% PEG 400 / 50% sodium phosphate pH7, 0.5M) worked out at 26600 µg/mL (≈ 55.2 mM); in data set [6] (50% propylene glycol/0.1m sodium phosphate, pH 7, organic solvent or mixture, 50% propylene glycol / 50% sodium phosphate pH7, 0.1M) it was 1700 µg/mL (≈ 3.53 mM); in data set [6] (50% propylene glycol/0.25m sodium phosphate, pH 7, organic solvent or mixture, 50% propylene glycol / 50% sodium phosphate pH7, 0.25M) it was 700 µg/mL (≈ 1.45 mM); in data set [6] (50% propylene glycol/0.5m sodium phosphate, pH 7, organic solvent or mixture, 50% propylene glycol / 50% sodium phosphate pH7, 0.5M), 500 µg/mL (≈ 1.04 mM); in data set [6] (50% thf/0.1m sodium phosphate, pH 7, organic solvent or mixture, 50% THF / 50% sodium phosphate pH7, 0.1M), 22300 µg/mL (≈ 46.3 mM); in data set [6] (50% thf/0.25m sodium phosphate, pH 7, organic solvent or mixture, 50% THF / 50% sodium phosphate pH7, 0.25M), 49300 µg/mL (≈ 102 mM). Further, the solubility in data set [6] (50% thf/0.5m sodium phosphate, pH 7, organic solvent or mixture, 50% THF / 50% sodium phosphate pH7, 0.5M) turned out to be 101000 µg/mL (≈ 210 mM). The molecule also had a TMAX in data set [3] (80 mg/kg) of 22.6 ± 14.9 min. For the same molecule, the half-life in “in vivo” (rat, in vivo, iv, 3 mg/kg) worked out at 23.2 ± 28.4 min. Further, the AUC is 2850 µg·h/mL in the data set “in vivo” (rat, in vivo, iv, 3 mg/kg, AUC)-t or infinity) and 607 µg·h/mL in “in vivo” (rat, in vivo, po, 80 mg/kg, AUC)-t or infinity). Also, in “in vivo” (rat, in vivo, po, 80 mg/kg, BA), the bioavailability was determined as 0.8 ± 0.16%. The molecule also returned a CMAX in the data set “in vivo” (rat, in vivo, po, 80 mg/kg, CMAX) of 207 ± 57.2 ng/mL.
